“Also recorded” adds a separate entry of the source.
Legend:
Gluc [1] = assay: Selective deactivation by DTT (FIG. 18B); format: biochemical, Gaussia princeps
Protocol: (§1) Selective deactivation agents that are suitable for the invention include, but not limited to, Dithiothreitol (DTT), beta-mercaptoethylamine, tris-carboxyethylphosphine (TCEP). The suitable concentrations of the agent (e.g., DTT) for selectively deactivating the first luciferease may range from 0.001M to 2M, e.g., from 0.01M to 0.5M, from 0.05M to 1M, 0.07M to 0.5M, or about 0.1M.
In each cycle a mixture of NLRTs were incubated with the DNA template to be sequenced in the presence of a DNA polymerase. These NLRTs include 7-deaza-7-biotin-linker-3′-azidomethyl-dATP, 5-biotin-linker-3′-azidomethyl-dTTP, 5-digoxin-linker-3′-azidomethyl-dTTP, 5-digoxin-linker-3′-azidomethyl-dCTP, and 3′-azidomethyl-dGTP. Streptavidin-conjugated Gluc (recognizing biotin-labeled nucleotides A and T) was added to the sequencing flow cell followed by adding substrate CTZ. Bioluminesnce signals from the cleavage of CTZ by the Gluc was collected. […] Subsequently, Nluc-conjugated anti-Digoxin antibody was added to the flow cell to bind the Digoxin-labeled nucleotides (T and C). No signals for G were detected as expected.

Nluc [2] = biological target: T1, Nluc (Oplophorus gracilirostris, UniProt Q9GV45, A31E/A60N/A81I/F95D/I117V/K70R/L54V/L99Q/M102K/N193R/P142E/Q151K/Q38R/Q45L/V71I/Y165I); assay: Selective deactivation by DTT (FIG. 18A); format: biochemical
T1 construct: purchased Prolume Inc
Text: as §1

[3] = Long-term shelf life of substrates in reaction buffer (FIG. 6); format: physicochemical; settings: 300 uM in reaction buffer, −20° C.
Protocol: Long-term shelf life (long-term stability) was also evaluated for the substrate reaction buffer formulation. 300 uM substrate was diluted in the reaction buffer and stored at −20° C. One aliquot was thaw and tested against the fresh luciferase. Data at each time point was the relative signal intensity ratio compared to a fresh luciferase/substrate pair.

[4] = On-board stability of substrates in reaction buffer (FIG. 5); format: physicochemical; settings: room temperature 24 hours in reaction buffer, compared with fresh condition
Protocol: The term “on-board stability” refers to the stability of […] in reaction buffer under the room temperature for 24 hours.
To develop the substrate reaction buffer into a robust reagent kit for the bioluminescence-based sequencing platform, both on-board stability and long term shelf life have been evaluated. […] We evaluated the room temperature stability for 24 hours (referred as on-board stability) for both CTZ and f-CTZ in the reaction buffer formulation listed above.

Solubility of substrates = format: physicochemical
Protocol: An optimal organic solvent as substrate stock buffer was needed to obtain good solubility and good stability. Different organic solvents and mixes were tested, such as ethanol, propylene glycol, methonal, DMSO, and mixes of these solvents at different ratios.

Gluc [5] = assay: Luciferase signal after incubation with SMCC linker or iodoacetamide (FIG. 10B); format: biochemical, Gaussia princeps
Protocol: (§2) We investigated the detailed luciferase structures to find the reason for the signal drop. […] To confirm this hypothesis, lodoacetamide was used to incubate with both Gluc and Nluc. Lodoacetamide can bind covalently to the thiol group of cysteine so the protein cannot form disulfide bonds, as illustrated in FIG. 10A. […] This was the reason why there is signal loss after incubating the SMCC with Nluc/Gluc which leads to low signal intensity for the final antibody conjugates.

Nluc [6] = biological target: T1, Nluc; assay: Signal and thermostability after Traut's modification (FIG. 11C, 11D); format: biochemical
Text: (§3) Other conjugation methods were also attempted to avoid the side reactions from SMCC. […] After purification of each reaction, the luciferase after Traut's treatment and the antibody after SMCC treatment were mixed together to react through the —SH group on the luciferase and maleimide on the SMCC group on antibody.
Beside signal evaluation, stability study had also been investigated. […]

Gluc [7] = assay: as above; format: biochemical, Gaussia princeps
Protocol: as §3
Beside signal evaluation, stability study had also been investigated. […] For Nluc, Traut's modification (1:1 ratio) helps to improve stability and signal for about 30% at 50° C.

Nluc mutant = biological target: T2, Nluc mutant (Oplophorus gracilirostris, UniProt Q9GV45, A31E/A60N/A81I/F95D/I117V/K70R/L54V/L99Q/M102K/N193R/P142E/Q151K/Q38R/Q45L/V71I/Y165I); assay: Screening of CTZ analogs as substrate (FIG. 4); format: biochemical; settings: with Nluc mutant
T2 construct: purchased Prolume Inc

Nluc [8] = biological target: T1, Nluc; assay: Luciferase signal after incubation with SMCC linker or iodoacetamide (FIG. 10B); format: biochemical; settings: Nluc:iodoacetamide 1:10 ratio at RT for 30 min
Protocol: as §2

[9] = Stability of luciferases in cells (Table 1); format: cell-based
[10] = relative; each luciferase with the substrate listed in Table 1
Text: Preferably the luciferase is relatively small (e.g., less than 30 KDa) so that they can be readily engineered, e.g., be coupled to or fused to an affinity reagent disclosed herein. […] Other non-limiting examples of luciferases that can be used include Nanoluc (Promega) and NanoKaz (NanoLight Technology), which also comprise a sequence of SEQ ID NO: 2.

[11] = Side-by-side signal intensity comparison of commercial luciferases (FIG. 2); format: biochemical; settings: integrated signal intensity from the first 10 sec
Text: However, it was still multiple fold intensity higher than the rest of the counterparts. […] The integrated signal intensity from the first 10 sec was obtained from each luciferase/substrate pair to have the comparison.

[12] = Cross-substrate reactivity of Nluc with the Gluc substrate (FIG. 3); format: biochemical
Protocol: In some embodiments, the luciferase is incubated with the substrate for a sufficient amount of time to allow the development of the signal before detection. The step of signal development may last between 5 to 30 minutes, for example, about 10 minutes.

O[C@H](CS)[C@H](O)CS (racemic) [DTT, Dithiothreitol]
deactivation in sequencing flow cell (Gluc [1]; 100 mM DTT): deactivated Gluc | signal reduction after DTT treatment (Gluc [1]; Gluc): more than 95% | signal change after DTT treatment (Nluc [2]): did not impair the activity; also recorded: no significant changes

Oc1ccc(Cc2nc3c(Cc4ccccc4)nc(-c4ccc(O)cc4)cn3c2O)cc1 [CTZ, coeleterazine]
long-term stability (relative signal intensity versus fresh luciferase/substrate pair) ([3]; Gluc/CTZ, 6 months): no significant signal drop | on-board stability [4]: no significant difference; also recorded: not significantly different | water solubility (Solubility of substrates): not water-soluble

O=C(ON1C(=O)CCC1=O)C1CCC(CN2C(=O)C=CC2=O)CC1 (stereo not shown) [SMCC]
signal drop after incubating with SMCC linker (Gluc [5]; Gluc): 15%-30%

N=C1CCCS1 [Traut's reagent, 2-iminothiolane]
thermostability after Traut's modification (Nluc [6]; Nluc modified or unmodified, 70° C. for 1 hour): cannot survive 70 °C | signal increase after Traut's modification (in words) (Nluc [6]; Nluc, 1:1 molar ratio gives the highest signal): doubled | signal increase after Traut's modification (Gluc [7]; 1:1 molar ratio gives the highest signal): 60% | thermostability after Traut's modification (Gluc [7]; 50° C. or 70° C. for 1 hour): worse stability

O=c1c(Cc2ccc(F)cc2)nc2c(Cc3ccccc3)[nH]c(-c3ccc(O)cc3)cn1-2 [f-CTZ, fluorinated coeleterazine]
long-term stability (relative signal intensity versus fresh luciferase/substrate pair) ([3]; Nluc/f-CTZ, 4 months): no significant signal drop | on-board stability [4]: no significant difference; also recorded: not significantly different | signal intensity among the different CTZ analog structures (Nluc mutant): optimal substrate; also recorded: highest signal intensity | water solubility (Solubility of substrates): not water-soluble

NC(=O)CI [lodoacetamide, Iodoacetamide]
signal lost after reacting with iodoacetamide (Gluc [5]; Gluc:iodoacetamide 1:10 ratio at RT for 30 min, fraction of signal): 2/3 | signal lost after reacting with iodoacetamide (Nluc [8]): lost all signal

firefly: firefly luciferase, substrate D-Luciferin
Stability in cells [9]: 0.00694 days | Signal intensity [10]: 1

B1: Gaussia: Gaussia luciferase (GLuc), substrate Coelenterazine (protein)
chain: MKPTENNEDFNIVAVASNFATTDLDADRGKLPGKKLPLEVLKELEANARKAGCTRGCLICLSHIKCTPKMKKFIPGRCHTYEGDKESAQGGIGEAIVDIPEIPGFKDLEPLEQFIAQVDLCVDCTTGCLKGLANVQCSDLLKKWLPQRCATFASKIQGQVDKIKGAGGDHHHHHH
Stability in cells [9]: 10.5 days | Signal intensity [10]: 160

B2: Nluc: NanoZac luciferase polypeptide (SEQ ID NO: 2), Prolume Inc. (protein)
chain: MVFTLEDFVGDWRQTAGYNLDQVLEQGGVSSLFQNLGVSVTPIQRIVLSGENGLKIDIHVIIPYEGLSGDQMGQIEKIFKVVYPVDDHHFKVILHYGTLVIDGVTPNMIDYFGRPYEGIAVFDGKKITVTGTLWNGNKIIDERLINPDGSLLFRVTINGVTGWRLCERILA
signal compared to the Gluc mutant [11]: half | background signal when reacting with the Gluc substrate ([12]; Nluc with CTZ): about 10% | cross-substrate reactivity ([12]; in words, FIG. 3): no significant cross-substrate reactivity

B3: Nanoluc: Nanoluc luciferase (Promega), substrate Furimazine (protein)
chain: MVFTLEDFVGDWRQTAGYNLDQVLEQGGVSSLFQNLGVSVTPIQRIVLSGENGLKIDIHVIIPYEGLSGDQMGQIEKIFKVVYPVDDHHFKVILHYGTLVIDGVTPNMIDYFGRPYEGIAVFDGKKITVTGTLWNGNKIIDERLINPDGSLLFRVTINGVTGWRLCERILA
Stability in cells [9]: 7.7 days | Signal intensity [10]: 80

B4: NanoKaz: NanoKaz luciferase (NanoLight Technology), substrate Coelenterazine-F (protein)
chain: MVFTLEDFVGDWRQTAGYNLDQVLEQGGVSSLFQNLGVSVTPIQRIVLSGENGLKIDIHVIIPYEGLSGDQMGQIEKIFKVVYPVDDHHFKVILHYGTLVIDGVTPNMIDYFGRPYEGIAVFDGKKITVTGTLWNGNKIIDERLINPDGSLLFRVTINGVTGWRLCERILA
Stability in cells [9]: 7.7 days | Signal intensity [10]: 150
